Columns and labels:
[1] = Solubility/stability of injectable cinnamic acid 6 mg/mL in diluents (HPLC, ICH); format: physicochemical; details: zero day
Protocol: 6 mg of cinnamic acid was dissolved in 300 μl of 100% ethanol, sonicated for 5 min and then diluted to 1 ml with 5% PEG 400/5% DMSO/5% ethyl lactate to obtain a clear solution of cinnamic acid in the injectable form (injectable formulation). The formulation was evaluated for stability as per ICH guidelines.

[2] = system: Cyclophosphamide induced neutropenia; test: Cyclophosphamide induced neutropenia, hematological parameters (Example 10); format: in vivo, Female Swiss Albino mice
Protocol: (§1) • 1. To induce neutropenia by administration of cyclophosphamide. • 2.
(§2) Materials: Female Swiss Albino mice weighing between 25-27 g was procured from Global Bioresearch Solutions Pvt Ltd., Pune.
(§3) On day 0, blood was withdrawn from all animals for basal hematological parameters. All the groups of animals except placebo group were injected with 150 mg/kg of cyclophosphamide through intraperitoneal route (i.p.), while group 1 was injected with water for injection, i.p. On Day 3, blood was withdrawn from all animals for Total and differential count (neutrophils, lymphocytes, and monocytes). The animals of group 2 to 7 were dosed with one additional dose of 100 mg/kg cyclophosphamide on Day 4. […] The cyclophosphamide control group was injected with water for injection from day 5 to day 9. On day 10, blood was withdrawn from all animals for total and differential count (neutrophils, lymphocytes, and monocytes), platelets, liver parameters AST (aspartate aminotransferase), ALT (alanine aminotransferase), and renal parameters—serum creatinine, blood urea nitrogen and uric acid.
(§4) • Pure Picroside 1—1 tablet was dissolved in 0.1 ml of sterile water for injection and 0.1 ml was injected as subcutaneous injection. • The degraded Picroside 1 without salt (cinnamic acid of the present disclosure)—1 tablet was dissolved in 0.1 ml of sterile water for injection and 0.1 ml was injected as subcutaneous injection. • The Cinnamic acid low dose (0.6 mg/tablet) treated tablet was dissolved in 0.1 ml of sterile water for injection and 0.1 ml was injected as subcutaneous injection. • The Cinnamic acid high dose treated (6 mg/tablet) tablet was dissolved in 0.1 ml of sterile water for injection and 0.1 ml was injected as subcutaneous injection.

[3] = system: Cyclophosphamide induced hepatotoxicity and renal changes; test: Hepatic and renal parameters in cyclophosphamide induced neutropenia (Example 10); format: in vivo, Female Swiss Albino mice; details: for BUN (blood urea nitrogen) / SGOT Serum glutamic oxaloacetic transaminase / SGPT (Serum glutamic pyruvic transaminase) / Serum Creatinine / Uric acid: day 10, 1 tablet per animal per day for 5 days
Protocol: as §1, §2, §3, §4

[4] = Day 0, basal, 0.6 mg/tablet low dose
[5] = Day 0, basal, 6 mg/tablet high dose
[6] = Day 3, after cyclophosphamide, before treatment, 0.6 mg/tablet low dose
[7] = Day 3, after cyclophosphamide, before treatment, 6 mg/tablet high dose
[8] = Day 10, treated day 5 for 5 days, 0.6 mg/tablet low dose, 1 tablet per animal per day
[9] = Day 10, treated day 5 for 5 days, 6 mg/tablet high dose, 1 tablet per animal per day
[10] = vs CP control, day 10, cinnamic acid at both 0.6 mg/tablet low dose and 6 mg/tablet high dose
[11] = vs CP control, cinnamic acid at both 0.6 mg/tablet low dose and 6 mg/tablet high dose

## O=C(O)C=Cc1ccccc1 [The commercial synthetic Cinnamic acid, 3-Phenyl-2-propenoic acid]
[1]; 30% Ethanol with 3.5% PEG400
  HPLC area: 3128043
[1]; 30% Ethanol with 5% DMSO
  HPLC area: 3276296
[1]; 30% Ethanol with 5% Ethyl lactate
  HPLC area: 3175284
[1]; 100% Methanol
  HPLC area: 3379040
[2]; [4]
  % Lymphocytes: 45.17%
  % Monocytes: 6.66%
  % Neutrophils: 40.33%
  No of Platelets: 736600 per cu · mm of blood
  Total WBC Count: 7465 per cu · mm of blood
[2]; [5]
  % Lymphocytes: 46.83%
  % Monocytes: 6.82%
  % Neutrophils: 40.17%
  No of Platelets: 772500 per cu · mm of blood
  Total WBC Count: 7237 per cu · mm of blood
[2]; [6]
  % Lymphocytes: 83.67%
  % Monocytes: 1.82%
  % Neutrophils: 6.50%
  No of Platelets: 630500 per cu · mm of blood
  Total WBC Count: 2289 per cu · mm of blood
[2]; [7]
  % Lymphocytes: 84%
  % Monocytes: 1.66%
  % Neutrophils: 6.333%
  No of Platelets: 637000 per cu · mm of blood
  Total WBC Count: 2306 per cu · mm of blood
[2]; [8]
  % Lymphocytes: 61%
  % Monocytes: 5.82%
  % Neutrophils: 27.67%
  No of Platelets: 641400 per cu · mm of blood
  Total WBC Count: 4460 per cu · mm of blood
[2]; [9]
  % Lymphocytes: 53%
  % Monocytes: 5.82%
  % Neutrophils: 33.17%
  No of Platelets: 660300 per cu · mm of blood
  Total WBC Count: 5389 per cu · mm of blood
[2]; inference from table 8A, listed as The commercial synthetic cinnamic acid
  Anti-neutropenic activity (words): active to address neutropenia
[2]; [10]
  Effect on % lymphocytes: significant (p<0.001) decrease in % lymphocytes
  Effect on % monocytes: significantly (p<0.001) reversed
  Effect on % neutrophil: significantly (p<0.001) alleviated the cyclophosphamide-induced neutropenia
  Effect on platelet count: did not cause significant change in the platelet count
  Effect on total WBC count: significantly (p<0.001) reversed the cyclophosphamide induced decrease in WBC count
[3]; 0.6 mg/tablet low dose
  BUN (blood urea nitrogen): 9.533 mmol/L
  SGOT Serum glutamic oxaloacetic transaminase: 33.67 IU/L
  SGPT (Serum glutamic pyruvic transaminase): 36.5 IU/L
  Serum Creatinine: 38.5 µM
  Uric acid: 16.82 mg/L
[3]; 6 mg/tablet high dose
  BUN (blood urea nitrogen): 9.383 mmol/L
  SGOT Serum glutamic oxaloacetic transaminase: 29.33 IU/L
  SGPT (Serum glutamic pyruvic transaminase): 32.17 IU/L
  Serum Creatinine: 37.5 µM
  Uric acid: 16.66 mg/L
[3]; [11]
  Effect on BUN level: significant (p<0.001) decrease in BUN level
  Effect on SGOT level: significant (p<0.001) decrease in SGOT
  Effect on SGPT level: significant reversal (p<0.001)
  Effect on serum creatinine level: significant (p<0.001) decrease in creatinine level
  Effect on uric acid level: significant reversal (p<0.001) of uric acid level

— US20240350441A1, “PHARMACEUTICAL FORMULATION AND A PROCESS FOR ITS PREPARATION” (SAVA HEALTHCARE LTD, priority 2021, published 2024)
